# Laboratory results: PubChem BioAssay AID1963869 (Molecular Pharmacology Branch, DTP, NCI, 2024)
# Tested on: KRAS patient-derived spheroids with HUVEC/MSC, viability
# Experiment: Anticancer human tumor 323965-272-R-J2-PDC patient-derived pancreatic carcinoma cell line growth inhibition [KRAS2]
# Details: for IC50: curve of first compound; for viability, T/C: stronger effect = lower value
# Method in brief: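 Combination screen of spheroid viability in tumor-cell co-cultures with endothelial (HUVEC) and mesenchymal stem cell stroma. Each agent was tested in half-log dilutions, topping at clinical Cmax or at 10 microM without a known Cmax.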
# [1] = second compound 0.0316 µM, first compound 0.01 µM
# [2] = second compound 0.0316 µM, first compound 0.0316 µM
# [3] = second compound 0.0316 µM, first compound 0.1 µM
# [4] = second compound 0.0316 µM, first compound 0.316 µM
# [5] = second compound 0.0316 µM, first compound 1 µM
# [6] = second compound 0.0316 µM, first compound 3.16 µM
# [7] = second compound 0.1 µM, first compound 0.01 µM
# [8] = second compound 0.1 µM, first compound 0.0316 µM
# [9] = second compound 0.1 µM, first compound 0.1 µM
# [10] = second compound 0.1 µM, first compound 0.316 µM
# [11] = second compound 0.1 µM, first compound 1 µM
# [12] = second compound 0.1 µM, first compound 3.16 µM
# [13] = second compound 0.316 µM, first compound 0.01 µM
# [14] = second compound 0.316 µM, first compound 0.0316 µM
# [15] = second compound 0.316 µM, first compound 0.1 µM
# [16] = second compound 0.316 µM, first compound 0.316 µM
# [17] = second compound 0.316 µM, first compound 1 µM
# [18] = second compound 0.316 µM, first compound 3.16 µM
# [19] = second compound 1 µM, first compound 0.01 µM
# [20] = second compound 1 µM, first compound 0.0316 µM
# [21] = second compound 1 µM, first compound 0.1 µM
# [22] = second compound 1 µM, first compound 0.316 µM
# [23] = second compound 1 µM, first compound 1 µM
# [24] = second compound 1 µM, first compound 3.16 µM
# [25] = second compound 3.16 µM, first compound 0.01 µM
# [26] = second compound 3.16 µM, first compound 0.0316 µM
# [27] = second compound 3.16 µM, first compound 0.1 µM
# [28] = second compound 3.16 µM, first compound 0.316 µM
# [29] = second compound 3.16 µM, first compound 1 µM
# [30] = second compound 3.16 µM, first compound 3.16 µM
# [31] = second compound 0.0316 µM, first compound 10 µM
# [32] = second compound 0.1 µM, first compound 10 µM
# [33] = second compound 0.316 µM, first compound 10 µM
# [34] = second compound 1 µM, first compound 10 µM
# [35] = second compound 3.16 µM, first compound 10 µM
# 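Note: spheroids exposed to agents for 7 days.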
# 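Throughout, for viability, T/C: 100% = DMSO vehicle control viability.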
Compound,IC50 (second compound 0.0316 µM),IC50 (second compound 0.1 µM),IC50 (second compound 0.316 µM),IC50 (second compound 1 µM),IC50 (second compound 3.16 µM),"viability, T/C [2]","viability, T/C [3]","viability, T/C [4]","viability, T/C [5]","viability, T/C [8]","viability, T/C [9]","viability, T/C [10]","viability, T/C [11]","viability, T/C [14]","viability, T/C [15]","viability, T/C [16]","viability, T/C [17]","viability, T/C [20]","viability, T/C [21]","viability, T/C [22]",other results
CC1COCCN1c1cc(-c2ccnn2C)c2ccnc(-c3ccn[nH]3)c2n1 (stereo not given) + C=CC(=O)N1CCN(c2nc(OCC3CCCN3C)nc3c2CCN(c2cccc4cccc(C)c24)C3)CC1CC#N,< 10 nM,12 nM,< 10 nM,< 10 nM,< 10 nM,26.8%,18.7%,16.4%,13.9%,27.4%,15.2%,14.8%,12.9%,21.7%,14%,12.2%,11.2%,18.2%,10.8%,11.1%,"viability, T/C [1]: 49.2%; viability, T/C [6]: 12.6%; viability, T/C [7]: 54.5%; viability, T/C [12]: 12.1%; viability, T/C [13]: 41.4%; viability, T/C [18]: 10.6%; viability, T/C [19]: 33%; viability, T/C [23]: 12.2%; viability, T/C [24]: 11.8%; viability, T/C [25]: 5.59%; viability, T/C [26]: 4.03%; viability, T/C [27]: 3.06%; viability, T/C [28]: 1.93%; viability, T/C [29]: 1.48%; viability, T/C [30]: 2.61%"
CCN1CCN(Cc2ccc(Nc3ncc(F)c(-c4cc(F)c5nc(C)n(C(C)C)c5c4)n3)nc2)CC1 + C=CC(=O)N1CCN(c2nc(OCC3CCCN3C)nc3c2CCN(c2cccc4cccc(C)c24)C3)CC1CC#N,8.21 nM,4.98 nM,< 3.16 nM,6.25 nM,< 3.16 nM,39.1%,38.6%,37.2%,45.5%,39.1%,31.2%,31.7%,44%,33.8%,32.8%,31.9%,38.8%,36.6%,28.8%,30.3%,"viability, T/C (second compound 0.0316 µM, first compound 0.00316 µM): 60.6%; viability, T/C [1]: 51.1%; viability, T/C (second compound 0.1 µM, first compound 0.00316 µM): 53.6%; viability, T/C [7]: 46%; viability, T/C (second compound 0.316 µM, first compound 0.00316 µM): 45%; viability, T/C [13]: 44.8%; viability, T/C (second compound 1 µM, first compound 0.00316 µM): 58.6%; viability, T/C [19]: 45.9%; viability, T/C [23]: 36.1%; viability, T/C (second compound 3.16 µM, first compound 0.00316 µM): 3%; viability, T/C [25]: 4.98%; viability, T/C [26]: 3.68%; viability, T/C [27]: 2.57%; viability, T/C [28]: 3.48%; viability, T/C [29]: 0.89%"
CCNC(=O)CC1N=C(c2ccc(Cl)cc2)c2cc(OC)ccc2-n2c(C)nnc21 (stereo not given) + C=CC(=O)N1CCN(c2nc(OCC3CCCN3C)nc3c2CCN(c2cccc4cccc(C)c24)C3)CC1CC#N,210 nM,101 nM,240 nM,111 nM,< 31.6 nM,75.3%,59.5%,46.3%,30.4%,63.1%,51.1%,35.6%,31.9%,89.5%,91.3%,37.3%,29.7%,60.4%,50.6%,38.5%,"viability, T/C [6]: 26.4%; viability, T/C [31]: 27.2%; viability, T/C [12]: 26.3%; viability, T/C [32]: 24.2%; viability, T/C [18]: 24.7%; viability, T/C [33]: 24.1%; viability, T/C [23]: 27%; viability, T/C [24]: 22.6%; viability, T/C [34]: 22.5%; viability, T/C [26]: 10.5%; viability, T/C [27]: 6.25%; viability, T/C [28]: 3.72%; viability, T/C [29]: 0.16%; viability, T/C [30]: 1.28%; viability, T/C [35]: 0.88%"
Cn1nccc1Nc1nccc(-c2cc3c(s2)C(C)(C)N(CCN2CCOCC2)C3=O)n1 + C=CC(=O)N1CCN(c2nc(OCC3CCCN3C)nc3c2CCN(c2cccc4cccc(C)c24)C3)CC1CC#N,387 nM,< 31.6 nM,58.5 nM,< 31.6 nM,< 31.6 nM,59.9%,59.8%,50.2%,43.2%,49.1%,49.1%,39.2%,36.4%,55.5%,44.9%,40%,37.4%,45.5%,41.8%,45.8%,"viability, T/C [6]: 31.5%; viability, T/C [31]: 32.5%; viability, T/C [12]: 32.1%; viability, T/C [32]: 36.4%; viability, T/C [18]: 30.8%; viability, T/C [33]: 35.5%; viability, T/C [23]: 35.7%; viability, T/C [24]: 28.9%; viability, T/C [34]: 29.5%; viability, T/C [26]: 3.69%; viability, T/C [27]: 4.06%; viability, T/C [28]: 2.62%; viability, T/C [29]: 0.91%; viability, T/C [30]: 0.72%; viability, T/C [35]: 0.53%"
